From BindingDB's records for doi:10.1016/j.bmcl.2013.08.111 (University of Michigan, 2013)
pIC50: −log10 of the molar value.

Target: Catenin beta-1/Transcription factor 7-like 2 (Homo sapiens, UniProt P35222+Q9NQB0)
Assay: Inhibition of human TCF4/ flag epitope-tagged beta-catenin (unknown origin) interaction transfected in human HCT116 cells after 24 hrs by beta-galactosidase/luciferase reporter gene assay

Sequence of Catenin beta-1/Transcription factor 7-like 2 (P35222 whole entry): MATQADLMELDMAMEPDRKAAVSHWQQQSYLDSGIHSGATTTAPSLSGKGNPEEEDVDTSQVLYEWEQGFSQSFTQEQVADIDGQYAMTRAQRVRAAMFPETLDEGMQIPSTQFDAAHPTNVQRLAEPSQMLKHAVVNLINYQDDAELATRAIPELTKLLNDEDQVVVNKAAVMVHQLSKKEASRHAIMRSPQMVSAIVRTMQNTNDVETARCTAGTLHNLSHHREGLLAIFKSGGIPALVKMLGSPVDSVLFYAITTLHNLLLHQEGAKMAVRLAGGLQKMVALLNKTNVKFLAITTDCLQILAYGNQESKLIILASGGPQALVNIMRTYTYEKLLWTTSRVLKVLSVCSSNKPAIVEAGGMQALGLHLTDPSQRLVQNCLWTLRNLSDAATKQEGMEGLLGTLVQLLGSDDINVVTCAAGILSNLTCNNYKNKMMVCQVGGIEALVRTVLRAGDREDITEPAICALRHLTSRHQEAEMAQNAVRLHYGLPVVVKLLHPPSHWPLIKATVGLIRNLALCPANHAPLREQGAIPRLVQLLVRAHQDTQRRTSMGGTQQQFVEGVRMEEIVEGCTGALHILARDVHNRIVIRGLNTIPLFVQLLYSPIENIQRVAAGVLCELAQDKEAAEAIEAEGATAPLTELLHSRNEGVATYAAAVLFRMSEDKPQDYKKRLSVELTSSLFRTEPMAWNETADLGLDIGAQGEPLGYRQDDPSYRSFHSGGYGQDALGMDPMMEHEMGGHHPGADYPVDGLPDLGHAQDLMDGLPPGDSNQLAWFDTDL
Sequence of Catenin beta-1/Transcription factor 7-like 2 (Q9NQB0 whole entry): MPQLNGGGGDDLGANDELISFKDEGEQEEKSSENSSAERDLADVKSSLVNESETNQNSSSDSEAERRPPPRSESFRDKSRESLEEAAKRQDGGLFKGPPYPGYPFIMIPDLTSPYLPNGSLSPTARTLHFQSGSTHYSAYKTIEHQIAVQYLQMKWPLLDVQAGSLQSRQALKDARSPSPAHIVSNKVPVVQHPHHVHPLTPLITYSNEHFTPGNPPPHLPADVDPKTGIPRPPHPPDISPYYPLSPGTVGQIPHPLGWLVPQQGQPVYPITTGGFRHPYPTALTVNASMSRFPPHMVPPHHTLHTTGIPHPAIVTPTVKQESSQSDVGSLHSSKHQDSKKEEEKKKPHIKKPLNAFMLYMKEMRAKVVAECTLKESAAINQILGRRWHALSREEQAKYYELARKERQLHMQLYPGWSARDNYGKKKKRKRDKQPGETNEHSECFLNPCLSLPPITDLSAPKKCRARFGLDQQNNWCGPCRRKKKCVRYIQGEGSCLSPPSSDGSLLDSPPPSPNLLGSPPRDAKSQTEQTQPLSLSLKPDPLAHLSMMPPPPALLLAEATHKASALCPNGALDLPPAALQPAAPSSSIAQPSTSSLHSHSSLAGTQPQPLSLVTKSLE

Question: `Cn1nc(-c2ccc(Cl)cc2)nc2c(=O)n(C)c(=O)nc1-2` [3-(4-Chloro-phenyl)-1,6-dimethyl-1H-pyrimido[5,4-e][1,2,4]triazine-5,7-dione] was tested. Which pIC50 did it give?
Answer: 6.52
